According to patent publication US8912120B2, “Herbicidal compositions comprising 4-amino-3-chloro-5-fluoro-6-(4-chloro-2-fluoro-3-methoxyphenyl) pyridine-2-carboxylic acid or a derivative thereof and synthetic auxin herbicides” (Dow AgroSciences, LLC., priority 2012, dated 2014):
Values joined by “and” are separate entries in the source; they are usually repeats but may differ in a detail not shown here. Identical values can stand only once.

Columns and labels:
FIMMI = test: Example II: in-water applied herbicidal mixtures, transplanted paddy rice, FIMMI; type: in vivo, Fimbristylis miliacea (globe fringerush); settings: 22 DAA; 10.6 gae/ha
Description: The prepared mud was dispensed in 365 mL aliquots into 16-ounce (oz.) non-perforated plastic pots with a surface area of 86.59 square centimeters (cm^2) leaving a headspace of 3 centimeters (cm) in each pot Mud was allowed to dry overnight prior to planting or transplanting. Rice seeds were planted in Sun Gro MetroMix® 306 planting mixture, which typically has a pH of 6.0 to 6.8 and an organic matter content of about 30 percent, in plastic plug trays. Seedlings at the second or third leaf stage of growth were transplanted into 840 mL of mud contained in 32-oz. non-perforated plastic pots with a surface area of 86.59 cm^2 4 days prior to herbicide application. […] Nutrients were added as Osmocote® (19:6:12, N:P:K^+ minor nutrients) at 2 g per 16-oz. pot and 4 g per 32-oz. pot.
Applications were made by injecting with a pipetter appropriate amounts of the application solutions, individually and sequentially, into the aqueous layer of the paddy. Control plants were treated in the same manner with the solvent blank. Applications were made so that all treated plant material received the same concentrations of acetone and crop oil concentrate.

CYPIR = test: Example II: in-water applied herbicidal mixtures, transplanted paddy rice, CYPIR; type: in vivo, Cyperus iria L. (flatsedge; settings: 21 DAA
CYPES = test: Example I: postemergence foliar-applied herbicidal mixtures, direct seeded rice, CYPES; type: in vivo, Cyperus esculentus (yellow nutsedge); settings: 4.38 gae/ha
Description: (§6) The soil matrix was contained in plastic pots with a volume of 1 quart and a surface area of 83.6 square centimeters (cm^2). […] The plants were grown for 8-22 days in a greenhouse with an approximate 14 h photoperiod which was maintained at about 29° C. during the day and 26° C. during the night. Nutrients (Peters Excel® 15-5-15 5-Ca 2-Mg and iron chelate) were applied in the irrigation solution as needed and water was added on a regular basis. Supplemental lighting was provided with overhead metal halide 1000-Watt lamps as necessary. The plants were employed for testing when they reached the first through fourth true leaf stage.
(§7) Treatments consisted of the acid or esters of 4-amino-3-chloro-5-fluoro-6-(4-chloro-2-fluoro-3-methoxy-phenyl)pyridine-2-carboxylic acid (Compound A), each formulated as an SC (suspension concentrate), and various herbicidal components alone and in combination. Forms of compound A were applied on an acid equivalent basis.
(§8) For treatments comprised of formulated compounds, measured amounts of compounds were placed individually in 25 mL glass vials and diluted in a volume of 1.25% (v/v) Agri-Dex® crop oil concentrated to obtain 12× stock solutions. […] Application solutions were prepared by adding an appropriate amount of each stock solution (e.g., 1 mL) and diluted to the appropriate final concentrations with the addition of 10 mL of an aqueous mixture of 1.25% (v/v) crop oil concentrate so that the final spray solutions contained 1.25+/−0.05% (v/v) crop oil concentrate.
(§9) All stock solutions and applications solutions were visually inspected for compound compatibility prior to application. Spray solutions were applied to the plant material with an overhead Mandel track sprayer equipped with a 8002E nozzles calibrated to deliver 187 L/ha over an application area of 0.503 m^2 at a spray height of 18 to 20 inches (46 to 50 cm) above average plant canopy height. Control plants were sprayed in the same manner with the solvent blank.
(§10) The treated plants and control plants were placed in a greenhouse as described above and watered by sub-irrigation to prevent wash-off of the test compounds. After approximately 3 weeks, the condition of the test plants as compared with that of the untreated plants was determined visually and scored on a scale of 0 to 100 percent where 0 corresponds to no injury or growth inhibition and 100 corresponds to complete kill.
(§11) Colby's equation was used to determine the herbicidal effects expected from the mixtures (Colby, S. R. 1967. Calculation of the synergistic and antagonistic response of herbicide combinations. Weeds 15:20-22).
(§12) The following equation was used to calculate the expected activity of mixtures containing two active ingredients, A and B: Expected=A+B−(A×B/100) […]

CYPDI = test: Example I: postemergence foliar-applied herbicidal mixtures, direct seeded rice, CYPDI; type: in vivo, Cyperus difformis (smallflower umbrella sedge)
Description: as §6, §7, §8, §9, §10, §11, §12

PANDI = test: Example III: postemergence foliar-applied herbicidal mixtures, row crop weeds, PANDI; type: in vivo, Panicum dichotomiflorum (fall panicum); settings: 16 DAA; 3.75 gae/ha
Description: (§1) The plants were grown for 7-31 days (d) in a greenhouse with an approximate 15 hour (h) photoperiod which was maintained at about 23-29° C. during the day and 22-28° C. during the night.

SCPJU = test: Example II: in-water applied herbicidal mixtures, transplanted paddy rice, SCPJU; type: in vivo, Schoenoplectus juncoides (Japanese bulrush); settings: for Visual Weed Control (%) - 21 DAA SCPJU Obs / Visual Weed Control (%) - 25 DAA SCPJU Obs: in-water application
Summary of the method: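 Flooded-mud greenhouse setup with rice transplanted at the 2–3 leaf stage, 4 days before herbicides were added to the water layer by pipette; solvent content matched across all pots.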

ISCRU = test: Example I: postemergence foliar-applied herbicidal mixtures, direct seeded rice, ISCRU; type: in vivo, Ischaemum rugosum (saramollagrass)
Description: as §6, §7, §8, §9, §10, §11
The following equation was used to calculate the expected activity of mixtures containing two active ingredients, A and B: Expected=A+B−(A×B/100)
A=observed efficacy of active ingredient A at the same concentration as used in the mixture.
B=observed efficacy of active ingredient B at the same concentration as used in the mixture.

TRFRE = test: Example V: postemergence herbicidal activity of mixtures in forage crops, TRFRE; type: in vivo, Trifolium repens (white clover); settings: alone, foliar, approximately 21 days
Description: (§2) Seeds or root cuttings of the desired test plant species were planted in Sun Gro MetroMix® 306 planting mixture, which typically has a pH of 6.0 to 6.8 and an organic matter content of about 30 percent, in plastic pots with a surface area of 126.6 square centimeters (cm^2). […] The plants were grown for 14-60 days in a greenhouse with an approximate 14 hour photoperiod which was maintained at approximately 28° C. during the day and 24° C. during the night.
(§3) Spray solutions of the second herbicide or experimental compound mixtures were prepared by adding the stock solutions to the appropriate amount of dilution solution to form 12 mL spray solution with active ingredients in two-way combinations.

SONAR = test: Example V: postemergence herbicidal activity of mixtures in forage crops, SONAR; type: in vivo, Sonchus arvensis (field sowthistle); settings: alone, foliar, approximately 21 days
Summary of the method: (§4)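 Plants grown from seed or root cuttings in MetroMix 306 (pH 6.0–6.8) for 14–60 days in greenhouse, ~14 h photoperiod, ~28/24 °C day/night. Foliar spray of two-way mixtures of the second herbicide or experimental compounds applied postemergence.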

CIRAR [1] = test: Example V: postemergence herbicidal activity of mixtures in forage crops, CIRAR; type: in vivo, Cirsium arvense (Canada thistle); settings: alone, foliar, approximately 21 days
Description: as §2, §3

SIDSP = test: Example V: postemergence herbicidal activity of mixtures in forage crops, SIDSP; type: in vivo, Sida spinosa (prickly sida); settings: alone, foliar, approximately 21 days
Description: as §2, §3

SINAR = test: Example V: postemergence herbicidal activity of mixtures in forage crops, SINAR; type: in vivo, Sinapis arvensis (wild mustard); settings: alone, foliar, approximately 21 days
Summary of the method: as §4

SOOSS = test: Example V: postemergence herbicidal activity of mixtures in forage crops, SOOSS; type: in vivo, Solidago L. spec. (goldenrod); settings: alone, foliar, approximately 21 days
Description: as §2, §3

SORHA = test: Example III: postemergence foliar-applied herbicidal mixtures, row crop weeds, SORHA; type: in vivo, Sorghum halepense (johnsongrass); settings: 13 DAA
Description: as §1

CENMA = test: Example V: postemergence herbicidal activity of mixtures in forage crops, CENMA; type: in vivo, Centaurea maculosa (spotted knapweed); settings: alone, foliar, approximately 21 days
Summary of the method: as §4

PANMI = test: Example III: postemergence foliar-applied herbicidal mixtures, row crop weeds, PANMI; type: in vivo, Panicum miliaceum (wild-proso millet); settings: 16 DAA
Description: as §1

AMARE = test: Example IV: postemergence foliar-applied herbicidal mixtures, weed control in cereal crops in the greenhouse, AMARE; type: in vivo, Amaranthus retroflexus (redroot pigweed); settings: alone, 8.75 gai/ha, 20-22 days
Summary of the method: (§5)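 Greenhouse plants were grown 7–36 days in potting mix (pH 6.0–6.8) under ~14 h photoperiod at about 18 °C day/17 °C night. Postemergence foliar sprays (12 mL) contained the second cereal herbicide with experimental compound as two- and three-way mixtures.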

POLCO = test: Example IV: postemergence foliar-applied herbicidal mixtures, cereal crops, POLCO; type: in vivo, Polygonum convolvulus (wild buckwheat); settings: 8.75 gai/ha
Summary of the method: as §5

CIRAR [2] = test: Example IV: postemergence foliar-applied herbicidal mixtures, cereal crops, CIRAR; type: in vivo, Cirsium arvense (Canada thistle); settings: alone, 8.75 gai/ha, 20-22 days
Description: as §2, with “Seeds” for “Seeds or root cuttings”, “MetroMix” for “MetroMix®”, “103.2” for “126.6”, “7-36” for “14-60”, “about 18°” for “approximately 28°”, “17°” for “24°”
Spray solutions of the second cereal herbicide and experimental compound mixtures were prepared by adding the stock solutions to the appropriate amount of dilution solution to form 12 mL spray solution with active ingredients in two- and three-way combinations.

VIOTR = test: Example IV: postemergence foliar-applied herbicidal mixtures, cereal crops, VIOTR; type: in vivo, Viola tricolor (wild pansy); settings: 8.75 gai/ha
Summary of the method: as §5

## COc1c(Cl)ccc(-c2nc(C(=O)O)c(Cl)c(N)c2F)c1F [Compound A Acid, 4-amino-3-chloro-6-(4-chloro-2-fluoro-3-methoxyphenyl)-5-fluoropyridine-2-carboxylic acid]
FIMMI
  Visual Weed Control (%) Obs: 40%
CYPIR; 8.75 gae/ha
  Visual Weed Control (%) Obs: 0%
CYPIR; 17.5 gae/ha
  Visual Weed Control (%) Obs: 0%
CYPIR; 35 gae/ha
  Visual Weed Control (%) Obs: 95%
CYPES
  Visual Weed Control (%) - 21 DAA CYPES Obs: 18%
CYPDI; 4.38 gae/ha
  Visual Weed Control (%) - 21 DAA CYPDI Obs: 50%
CYPDI; 8.75 gae/ha
  Visual Weed Control (%) - 21 DAA CYPDI Obs: 85%
PANDI
  Visual Weed Control (%) Obs: 60%
SCPJU; 8.75 gae/ha
  Visual Weed Control (%) - 21 DAA SCPJU Obs: 15%
  Visual Weed Control (%) - 25 DAA SCPJU Obs: 65%
SCPJU; 17.5 gae/ha
  Visual Weed Control (%) - 21 DAA SCPJU Obs: 80%
  Visual Weed Control (%) - 25 DAA SCPJU Obs: 80%
SCPJU; 22 DAA, 10.6 gae/ha
  Visual Weed Control (%) Obs: 60%
SCPJU; 25 DAA, 8.75 gae/ha
  Visual Weed Control (%) Obs: 65%
SCPJU; 25 DAA, 17.5 gae/ha
  Visual Weed Control (%) Obs: 80%
SCPJU; 25 DAA, 35 gae/ha
  Visual Weed Control (%) Obs: 95%
SCPJU; 35 gae/ha
  Visual Weed Control (%) - 25 DAA SCPJU Obs: 95%

## COc1c(Cl)ccc(-c2nc(C(=O)OCc3ccccc3)c(Cl)c(N)c2F)c1F [Compound A Benzyl Ester, benzyl ester of 4-amino-3-chloro-5-fluoro-6-(4-chloro-2-fluoro-3-methoxy-phenyl)pyridine-2-carboxylic acid]
ISCRU; 8 gae/ha
  Visual Weed Control (%) - 21 DAA ISCRU Obs: 20%
ISCRU; 16 gae/ha
  Visual Weed Control (%) - 21 DAA ISCRU Obs: 0%
TRFRE; 4.4 gae/ha
  TRFRE Obs (observed value): 0%
TRFRE; 8.8 gae/ha
  TRFRE Obs (observed value): 10%
TRFRE; 17.5 gae/ha
  TRFRE Obs (observed value): 30%
SONAR; 4.4 gae/ha
  SONAR Obs (observed value): 65%
SONAR; 8.8 gae/ha
  SONAR Obs (observed value): 100%
SONAR; 17.5 gae/ha
  SONAR Obs (observed value): 95%
CIRAR [1]; 2.2 gae/ha
  CIRAR Obs (observed value): 25%
CIRAR [1]; 4.4 gae/ha
  CIRAR Obs (observed value): 30% and 25%
CIRAR [1]; 8.8 gae/ha
  CIRAR Obs (observed value): 30%
CIRAR [1]; 17.5 gae/ha
  CIRAR Obs (observed value): 30%
SIDSP; 1.1 gae/ha
  SIDSP Obs (observed value): 72%
SIDSP; 2.2 gae/ha
  SIDSP Obs (observed value): 77%
SIDSP; 4.4 gae/ha
  SIDSP Obs (observed value): 85%
SINAR; 1.1 gae/ha
  SINAR Obs (observed value): 72%
SINAR; 2.2 gae/ha
  SINAR Obs (observed value): 98%
SINAR; 4.4 gae/ha
  SINAR Obs (observed value): 80% and 100%
SINAR; 8.8 gae/ha
  SINAR Obs (observed value): 100%
SINAR; 17.5 gae/ha
  SINAR Obs (observed value): 100%
SOOSS; 2.2 gae/ha
  SOOSS Obs (observed value): 15%
SOOSS; 17.5 gae/ha
  SOOSS Obs (observed value): 100%
SORHA; 3.75 gae/ha
  Visual Weed Control (%) Obs: 0%
SORHA; 7.5 gae/ha
  Visual Weed Control (%) Obs: 0%
SORHA; 15 gae/ha
  Visual Weed Control (%) Obs: 10%
CENMA; 4.4 gae/ha
  CENMA Obs (observed value): 70%
CENMA; 8.8 gae/ha
  CENMA Obs (observed value): 85%
CENMA; 17.5 gae/ha
  CENMA Obs (observed value): 95%
PANMI; 3.75 gae/ha
  Visual Weed Control (%) Obs: 15%
PANMI; 7.5 gae/ha
  Visual Weed Control (%) Obs: 50%
PANMI; 15 gae/ha
  Visual Weed Control (%) Obs: 75%
AMARE
  AMARE Ob (observed value): 60%
POLCO; after 20-22 days
  Weed Control Ob: 50%
POLCO; alone, foliar, 20-22 days
  POLCO Ob (observed value): 50%
CIRAR [2]
  CIRAR Ob (observed value): 70%
VIOTR; after 20-22 days
  Weed Control Ob: 30%
VIOTR; alone, foliar, 20-22 days
  VIOTR Ob (observed value): 30%
